In general, IC50 refers to the concentration at which inhibition is half-maximal. A high value points to lower potency.

Here are results for 24 compounds from patent US20160287589A1, “SUBSTITUTED-IMIDAZOPYRIDAZINES” (BAYER PHARMA AKTIENGESELLSCHAFT, priority 2013, published 2016).

For the first test, the target named is T1, MKNK1 (Homo sapiens, UniProt Q9BUB5, T385D).
T1 construct: GST (N); purchased Carna Biosciences 02-145; host or cells: insect cells (baculovirus expression system)
T1 sequence (Q9BUB5 1-424 isoform Q9BUB5-2 T344D): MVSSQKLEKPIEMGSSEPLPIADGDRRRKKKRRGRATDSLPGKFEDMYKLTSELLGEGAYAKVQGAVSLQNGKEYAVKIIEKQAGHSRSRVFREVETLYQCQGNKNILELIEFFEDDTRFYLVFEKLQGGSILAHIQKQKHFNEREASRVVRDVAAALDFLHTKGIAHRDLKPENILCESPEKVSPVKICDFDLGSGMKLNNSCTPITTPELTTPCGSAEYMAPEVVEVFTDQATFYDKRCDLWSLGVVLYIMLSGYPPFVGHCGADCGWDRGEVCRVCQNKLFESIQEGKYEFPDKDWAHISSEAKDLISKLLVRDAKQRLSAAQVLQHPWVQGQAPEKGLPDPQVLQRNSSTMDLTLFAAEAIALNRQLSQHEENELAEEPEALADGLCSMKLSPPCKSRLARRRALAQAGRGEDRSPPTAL
Put plainly: MKNK1 kinase high ATP assay (TR-FRET-based). In kind it is biochemical. The note with it: Table 2a; 2 mM ATP, 15 min preincubation. The method, then: MKNK1 Kinase High ATP Assay
MKNK1-inhibitory activity at high ATP of compounds of the present invention after their preincubation with MKNK1 was quantified employing the TR-FRET-based MKNK1 high ATP assay as described in the following paragraphs.
A recombinant fusion protein of Glutathione-S-Transferase (GST, N-terminally) and human full-length MKNK1 (amino acids 1-424 and T344D of accession number BAA 19885.1), expressed in insect cells using baculovirus expression system and purified via glutathione sepharose affinity chromatography, was purchased from Carna Biosciences (product no 02-145) and used as enzyme. As substrate for the kinase reaction the biotinylated peptide biotin-Ahx-IKKRKLTRRKSLKG (C-terminus in amide form) was used, which can be purchased e.g. from the company Biosyntan (Berlin-Buch, Germany).
For the assay 50 nL of a 100 fold concentrated solution of the test compound in DMSO was pipetted into a black low volume 384 well microtiter plate (Greiner Bio-One, Frickenhausen, Germany), 2 μL of a solution of MKNK1 in aqueous assay buffer [50 mM HEPES pH 7.5, 5 mM magnesium chloride, 1.0 mM dithiothreitol, 0.005% (v/v) Nonidet-P40 (Sigma)] was added and the mixture was incubated for 15 min at 22° C. to allow pre-binding of the test compounds to the enzyme before the start of the kinase reaction. Then the kinase reaction was started by the addition of 3 μL of a solution of adenosine-tri-phosphate (ATP, 3.3 mM=>final conc. in the 5 μL assay volume is 2 mM) and substrate (0.1 μM=>final conc. in the 5 μL assay volume is 0.06 μM) in assay buffer and the resulting mixture was incubated for a reaction time of 30 min at 22° C. The concentration of MKNK1 was adjusted depending of the activity of the enzyme lot and was chosen appropriate to have the assay in the linear range, typical concentrations were in the range of 0.003 μg/mL. The reaction was stopped by the addition of 5 μL of a solution of TR-FRET detection reagents (5 nM streptavidine-XL665 [Cisbio Bioassays, Codolet, France] and 1 nM anti-ribosomal protein S6 (pSer236)-antibody from Invitrogen [#44921G] and 1 nM LANCE EU-W1024 labeled ProteinG [Perkin-Elmer, product no. AD0071]) in an aqueous EDTA-solution (100 mM EDTA, 0.1% (w/v) bovine serum albumin in 50 mM HEPES pH 7.5).
The resulting mixture was incubated for 1 h at 22° C. to allow the formation of complex between the phosphorylated biotinylated peptide and the detection reagents. Subsequently the amount of phosphorylated substrate was evaluated by measurement of the resonance energy transfer from the Eu-chelate to the streptavidine-XL. Therefore, the fluorescence emissions at 620 nm and 665 nm after excitation at 350 nm were measured in a TR-FRET reader, e.g. a Rubystar (BMG Labtechnologies, Offenburg, Germany) or a Viewlux (Perkin-Elmer). The ratio of the emissions at 665 nm and at […] was taken as the measure for the amount of phosphorylated substrate. The data were normalised (enzyme reaction without inhibitor=0% inhibition, all other assay components but no enzyme=100% inhibition).
In general terms: In TR-FRET formats the signal depends on donor and acceptor labels being close together.
`COc1cccc2oc(-c3cnc4ccc(OC[C@H]5CN(C(=O)C6CC6)CCO5)nn34)cc12` [Example I-41, Cyclopropyl[(2R)-2-({[3-(4-methoxy-1-benzofuran-2-yl)imidazo[1,2-b]pyridazin-6-yl]oxy}methyl)morpholin-4-yl]methanone] registered a half-maximal inhibitory concentration (IC50) of 7 nM.
On the same count and under the same terms, next, `CC(C)(C)C(=O)N1CCC[C@H]1CCOc1ccc2ncc(-c3cc4ccccc4o3)n2n1` [Example I-3, 1-[(2S)-2-(2-{[3-(1-Benzofuran-2-yl)imidazo[1,2-b]pyridazin-6-yl]oxy}ethyl)-pyrrolidin-1-yl]-2,2-dimethylpropan-1-one]: 4.8 nM.

Still in this test, the particulars now being: Table 2b; 2 mM ATP, 15 min preincubation.
`COc1ccc2ncc(-c3cc4c(N5CCNC(C)(C)C5)cccc4o3)n2n1` [II-60, 3-[4-(3,3-dimethylpiperazin-1-yl)-1-benzofuran-2-yl]-6-methoxy-imidazo[1,2-b]pyridazine] showed an IC50 of 0.3 nM.
As for `COc1ccc2ncc(-c3cc4c(N5CCN[C@@H](C)C5)cccc4o3)n2n1` [II-40, 6-methoxy-3-{4-[(3S)-3-methylpiperazin-1-yl]-1-benzofuran-2-yl}imidazo[1,2-b]pyridazine], the IC50 is 4.4 nM.
For `C[C@H]1CN(c2cccc3oc(-c4cnc5ccc(OC[C@@H]6CCC(=O)N6)nn45)cc23)CCN1` [II-42, (5S)-5-{[(3-{4-[(3S)-3-methylpiperazin-1-yl]-1-benzofuran-2-yl}imidazo[1,2-b]pyridazin-6-yl)oxy]methyl}pyrrolidin-2-one], inhibition was half-maximal at 5.8 nM (IC50).
Compound `C[C@H]1CN(c2cccc3oc(-c4cnc5ccc(OCCCS(C)(=O)=O)nn45)cc23)CCN1` [II-52, 3-{4-[(3S)-3-methylpiperazin-1-yl]-1-benzofuran-2-yl}-6-[3-(methylsulfonyl)pro-poxy]imidazo[1,2-b]pyri-dazine] showed an IC50 of 7.1 nM. This IC50 and that of the compound before are within 1.5-fold of each other.
As to `C[C@H]1CN(c2cccc3oc(-c4cnc5ccc(OCC(F)(F)F)nn45)cc23)CCN1` [II-41, 3-{4-[(3S)-3-methylpiperazin-1-yl]-1-benzofuran-2-yl}-6-(2,2,2-trifluoroethoxy)im-idazo[1,2-b]pyridazine], the IC50 is 5.5 nM.

Staying with this test, now noted: Table 2c; 2 mM ATP, 15 min preincubation.
In turn, `C[C@H]1CN(c2nccc3oc(-c4cnc5ccc(OCCCS(C)(=O)=O)nn45)cc23)CCO1` [III-60, 3-{4-[(2S)-2-Methylmorpholin-4-yl]furo[3,2-c]pyridin-2-yl}-6-[3-(methyl-sulfonyl)propoxy]imidazo[1,2-b]pyridazine] had an IC50 of 2.8 nM.
`C[C@H]1CN(c2nccc3oc(-c4cnc5ccc(O[C@H]6C[C@H](N)C6)nn45)cc23)CCO1` [III-110, trans-3-[(3-{4-[(2S)-2-Methylmorpholin-4-yl]furo[3,2-c]pyridin-2-yl}imidazo[1,2-b]pyridazin-6-yl)oxy]cyclobutanamine] gave an IC50 of 10.4 nM. This IC50 is about 3.7-fold higher than that of the compound before.
Compound `C[C@H]1COCCN1c1nccc2oc(-c3cnc4ccc(OC[C@H]5CCC(=O)N5)nn34)cc12` [III-84, (5R)-5-{[(3-{4-[(3S)-3-Methylmorpholin-4-yl]furo[3,2-c]pyridin-2-yl}imidazo[1,2-b]pyridazin-6-yl)oxy]methyl}pyrrolidin-2-one] came in with an IC50 of 0.5 nM. Compared with the last compound, the IC50 is about 21-fold lower.
The compound `C[C@@H]1COCCN1c1nccc2oc(-c3cnc4ccc(OC[C@H]5CCC(=O)N5)nn34)cc12` [III-79, (5R)-5-{[(3-{4-[(3R)-3-Methylmorpholin-4-yl]furo[3,2-c]pyridin-2-yl}imidazo[1,2-b]pyridazin-6-yl)oxy]methyl}pyrrolidin-2-one] gave an IC50 of 0.7 nM.
In the case of `C[C@H](N)COc1ccc2ncc(-c3cc4c(N5CCO[C@@H](C)C5)nccc4o3)n2n1` [III-29, (2S)-1-[(3-{4-[(2S)-2-Methylmorpholin-4-yl]furo[3,2-c]pyridin-2-yl}imidazo-[1,2-b]pyridazin-6-yl)oxy]propan-2-amine], half-maximal inhibition (IC50) was put at 4.8 nM.
In the case of `C[C@H]1COCCN1c1nccc2oc(-c3cnc4ccc(OC[C@@H]5CCC(=O)N5)nn34)cc12` [III-87, (5S)-5-{[(3-{4-[(3S)-3-Methylmorpholin-4-yl]furo[3,2-c]pyridin-2-yl}imidazo-[1,2-b]pyridazin-6-yl)oxy]methyl}pyrrolidin-2-one], half-maximal inhibition (IC50) required 3.7 nM.
Compound `COc1ccc2ncc(-c3cc4c(N5CCOC[C@H]5C)nccc4o3)n2n1` [III-92, 6-Methoxy-3-{4-[(3R)-3-methylmorpholin-4-yl]furo[3,2-c]pyridin-2-yl}imidazo[1,2-b]pyridazine] registered an IC50 of 3.2 nM.
`C[C@H](N)COc1ccc2ncc(-c3cc4c(N5CCOC[C@@H]5C)nccc4o3)n2n1` [III-28, (2S)-1-[(3-{4-[(3S)-3-Methylmorpholin-4-yl]furo[3,2-c]pyridin-2-yl}imidazo-[1,2-b]pyridazin-6-yl)oxy]propan-2-amine] showed an IC50 of 9.4 nM.
Regarding `C[C@@H](N)COc1ccc2ncc(-c3cc4c(N5CCO[C@@H](C)C5)nccc4o3)n2n1` [III-6, (2R)-1-[(3-{4-[(2S)-2-Methylmorpholin-4-yl]furo[3,2-c]pyridin-2-yl}imidazo-[1,2-b]pyridazin-6-yl)oxy]propan-2-amine], half-maximal inhibition (IC50) required 8.8 nM.
On to `C[C@H]1CN(c2nccc3oc(-c4cnc5ccc(OC[C@@H]6CCC(=O)N6)nn45)cc23)CCO1` [III-88, (5S)-5-{[(3-{4-[(2S)-2-Methylmorpholin-4-yl]furo[3,2-c]pyridin-2-yl}imidazo-[1,2-b]pyridazin-6-yl)oxy]methyl}pyrrolidin-2-one], for which half-maximal inhibition (IC50) required 4.2 nM. Against the preceding compound, the IC50 is about 2.1-fold lower.
As for `C[C@@H]1CN(c2nccc3oc(-c4cnc5ccc(OCC(F)(F)F)nn45)cc23)CCN1` [III-127, 3-{4-[(3R)-3-methylpiperazin-1-yl]furo[3,2-c]pyridin-2-yl}-6-(2,2,2-trifluoroethoxy)imidazo [1,2-b]pyridazine], the IC50 came out at 4.2 nM.
Regarding `C[C@@H](N)COc1ccc2ncc(-c3cc4c(N5CCOC[C@@H]5C)nccc4o3)n2n1` [III-5, (2R)-1-[(3-{4-[(3S)-3-Methylmorpholin-4-yl]furo[3,2-c]pyridin-2-yl}imidazo-[1,2-b]pyridazin-6-yl)oxy]propan-2-amine], the half-maximal inhibitory concentration (IC50) amounted to 10.1 nM.
`COc1ccc2ncc(-c3cc4c(N5CCOC[C@@H]5C)nccc4o3)n2n1` [III-93, 6-Methoxy-3-{4-[(3S)-3-methylmorpholin-4-yl]furo[3,2-c]pyridin-2-yl}imidazo[1,2-b]pyridazine] returned an IC50 of 5.6 nM. Against the preceding compound, the IC50 is about 1.8-fold lower.
On to `COc1ccc2ncc(-c3cc4c(N5CCO[C@@H](C)C5)nccc4o3)n2n1` [III-94, 6-Methoxy-3-{4-[(2S)-2-methylmorpholin-4-yl]furo[3,2-c]pyridin-2-yl}imidazo[1,2-b]pyridazine], for which 4 nM corresponded to half-maximal inhibition (IC50).
Consider `C[C@H]1COCCN1c1nccc2oc(-c3cnc4ccc(OCCCS(C)(=O)=O)nn34)cc12` [III-59, 3-{4-[(3S)-3-Methylmorpholin-4-yl]furo[3,2-c]pyridin-2-yl}-6-[3-(methyl-sulfonyl)propoxy]imidazo[1,2-b]pyridazine], for which the 50% inhibitory concentration (IC50) was found to be 4.9 nM.
The same measure, in the same setting: next, `C[C@H]1COCCN1c1nccc2oc(-c3cnc4ccc(O[C@H]5C[C@H](N)C5)nn34)cc12` [III-109, trans-3-[(3-{4-[(3S)-3-Methylmorpholin-4-yl]furo[3,2-c]pyridin-2-yl}imidazo[1,2-b]pyridazin-6-yl)oxy]cyclobutanamine]: 5.2 nM.

The same test, now with this note: Table 2d; 2 mM ATP, 15 min preincubation.
`O=C1CC[C@H](COc2ccc3ncc(-c4cc5c(OCC6CC6)nccc5o4)n3n2)N1` [IV-12, (5R)-5-[({3-[4-(Cyclopropylmethoxy)furo[3,2-c]pyridin-2-yl]imidazo[1,2-b]-pyridazin-6-yl}oxy)methyl]pyrrolidin-2-one] came in with an IC50 of 7 nM. That is a single-digit nanomolar value.
